Like-named read-outs stand apart in the source and are kept apart here. Some results are limits rather than exact numbers.

The results in this text go back to publication PMC7999366, “Alkyl-Resorcinol Derivatives as Inhibitors of GDP-Mannose Pyrophosphorylase with Antileishmanial Activities” (Molecules, 2021).

Data set [1] concerns L. infantum intramacrophage amastigotes. Briefly: In vitro antileishmanial evaluation on intramacrophage amastigotes (Giemsa counting in RAW 264.7). To be noted: for IC50: Leishmania infantum, RAW264.7, RAW 264.7 macrophages, 48 h treatment, read-out: L. infantum Intramacrophage Amastigotes IC50 (µM) ± SD; for Selectivity Index: CC50/IC50 on intramacrophage amastigotes. Type of data set: cell-based, Leishmania infantum. The procedure: Concerning the evaluation on intramacrophage amastigotes, the determination of the cytotoxicity as presented above was necessary to use the highest drug concentrations to be studied on the intramacrophage amastigote model. RAW 264.7 macrophages were plated in 16-well Lab-Tek chamber slides (Thermo-FisherVillebon-sur-Yvette, France) at a density of 2 × 10^4 cells per well and incubated for 24 h at 37 °C with 5% CO2. […] After 24 h of infection at 37 °C with 5% CO2, extracellular parasites were removed, and DMEM complete medium (100 µL) containing two-fold serial dilutions of the compounds, from 100 µM to 0.049 µM, was added to each well. A positive control treated with 1% DMSO was added to each Lab-tek chamber-slide. After 48 h of treatment, the medium was removed and cells were fixed in methanol for 1 min, stained in 10% Giemsa (Merck) for 5 min, and further rinsed in water before observation in phase contrast at the microscope (Olympus CX31; Olympus, Rungis, France). The number of amastigotes was counted by two independent experimenters for a total of 300 macrophages per well and the ratio of amastigotes per macrophage was determined for each condition. This ratio was further compared with the one of the positive control, considered as 100%, to determine a percentage of inhibition (% I), as follows: % I = 100 − ((ratio of amastigotes per macrophage in treated cells/ratio of amastigotes per macrophages in untreated cells) × 100). The activity of the compounds was expressed as IC50, which was determined by nonlinear regression using GraphPad Prism 7.0. […] In vitro antileishmanial evaluations were performed in triplicate in three independent experiments.

In data set [2] the test system is L. infantum axenic amastigotes. In words: In vitro antileishmanial evaluation on axenic amastigotes (resazurin). Type of data set: cell-based, Leishmania infantum. To be noted: 72 h incubation, read-out: L. infantum Axenic Amastigotes IC50 (µM) ± SD. How it is done:
Promastigotes of Leishmania infantum (MHOM/FR/2008/LEM5700) were cultured in the dark at 26 °C with 5% CO2 in M199 complete medium containing M199 medium supplemented with adenosine (100 µM), hemin (0.5 mg/L), Hepes (40 mM) pH 7.4, and heat inactivated foetal bovine serum (10%; HIFBS). Cultures of axenic amastigotes of L. infantum were adapted from. Briefly, axenic amastigotes of L. infantum were obtained from late log promastigotes diluted at 1 × 10^6/mL in M199 complete medium acidified at pH 5.5 and cultured at 37 °C with 5% CO2.
The evaluations of activity on axenic amastigotes were adapted from the protocols previously described. Briefly, two-fold serial dilutions of the compounds, from 100 µM to 0.049 µM, were performed in 100 µL of complete medium (see above) in 96-well microplates. Axenic amastigotes were then added to each well at a density of 10^6/mL in a 200 µL final volume. After 72 h of incubation at 37 °C with 5% CO2, 20 µL of resazurin (450 µM) was added to each well and further incubated in the dark for 24 h at 37 °C with 5% CO2. Cell viability was then monitored as described above. The activity of the compounds was expressed as IC50, which was determined by nonlinear regression using GraphPad Prism 7.0.
(Resazurin is reduced to fluorescent resorufin, in cell work by metabolically active cells.)

For another data set, the target named is LiGDP-MP (Leishmania infantum, UniProt A4I048). In words: Enzyme inhibition assay on purified recombinant LiGDP-MP (malachite green). Type of data set: biochemical. The text has this:
(§1) Recombinant His6 tagged GDP-MP from L. infantum (LiGDP-MP) was produced in E. coli and purified using Ni-nitrilotriacetic acid (Ni-NTA) and size exclusion chromatography Hiload^TM16/60 Superdex^TM 200 column as previously described for LdGDP-MP [12]. Recombinant His-tagged GDP-MP from human (hGDP-MP) was produced in E. coli and purified using a Mono-Q anion exchange column followed by a Hiload^TM 16/60 Superdex^TM 200 column as previously described.
(§2) Enzyme activities of both LiGDP-MP and hGDP-MP were measured at 37 °C for 20 min in 384 well plates in a 20-µL reaction containing 50 mM Tris-HCl pH 7.5, 5 mM MgCl2, 100 µM Mannose-1-phosphate, 100 µM GTP, 1 mM DTT, 0.1 U/mL inorganic pyrophosphatase (Sigma-Aldrich, Saint-Quentin-Fallavier, France) and 2 ng/µL of recombinant GDP-MP [12, 29]. The reaction was initiated by the addition of GDP-MP, and was stopped after adding 20 µL of revelation buffer containing malachite green (0.03% w/v), ammonium molybdate (0.2% w/v) and Triton X-100 (0.05% v/v) in HCl (0.7 M) for 5 min at 37 °C. The quantity of inorganic phosphate generated, representing GDP-MP activity, was determined by measuring OD650nm with a spectrometer plate reader Polar Omega (BMG LabTech, Champigny-sur-Marne, France).
(§3) To evaluate compounds on purified GDP-MPs, enzyme activities were measured as described above in the presence of 100 µg/mL of natural products originating from a chemical library from ICSN (Institut de Chimie des Substances Naturelles, Gif-sur-Yvette). The inhibitors were added in the reaction mix, before the addition of GDP-MP. The percentage of inhibition was then calculated in reference to untreated enzyme. The statistical parameter (Z-factor) was calculated to validate the quality of the HTS assays as described previously. As a control, compounds were evaluated in parallel in the same conditions on inorganic pyrophosphatase alone in order to discard false-positives. […] The IC50 were determined by nonlinear regression using GraphPad Prism 7.0 and further converted in µM in order to normalize units in Table 1. Enzyme inhibition assays were performed in triplicate in three independent experiments.

Data set [3] in a line: In vitro cytotoxicity on RAW 264.7 macrophages (resazurin). Type of data set: cell-based. Conditions: mouse, 48 h incubation, read-out: Cytotoxicity on RAW 264.7 CC50 (µM) ± SD. The procedure: The RAW 264.7 macrophages (ATCC) were cultured at 37 °C with 5% CO2 in DMEM complete medium containing Dulbecco′s Modified Eagle′s Medium (DMEM, Invitrogen, Thermo-Fisher, Villebon-sur-Yvette, France) supplemented with penicillin-streptomycin (100 U/mL; Invitrogen), and heat-inactivated fetal bovine serum (10%; HIFBS).
Cytotoxicity was evaluated on RAW 264.7 macrophages. Cells were plated in 96-well microplates at a density of 2 × 10^4 cells per well. After an incubation of 24 h at 37 °C with 5% CO2, the medium was removed in each well, and 100 µL of DMEM complete medium containing two-fold serial dilutions of the compounds, from 100 µM to 0.049 µM, was added to each well. After 48 h of incubation at 37 °C with 5% CO2, 10 µL of resazurin (450 µM) was added to each well, and further incubated in the dark for 4 h at 37 °C with 5% CO2. In living cells, resazurin is reduced in resorufin, and this conversion is monitored by measuring OD570nm (resorufin) and OD600nm (resazurin; multimode microplate reader Spark®, Tecan, Lyon, France). […] In vitro cytotoxicity assays were performed in triplicate in three independent experiments.

The next data set concerns the target T1, hGDP-MP (Homo sapiens, UniProt Q9Y5P6).
T1 construct: His; made in house; host or cells: E. coli
Briefly: Enzyme inhibition assay on purified recombinant hGDP-MP (malachite green). Type of data set: biochemical. To be noted: 37 °C, 20 min, read-out: hGDP-MP IC50 (µM) ± SD.
From the text: as §1, §2, §3

Where [4] appears, read: purified recombinant enzyme, 37 °C, 20 min, read-out: LiGDP-MP IC50 (µM) ± SD.

Sequence of LiGDP-MP (A4I048 entry or part of it): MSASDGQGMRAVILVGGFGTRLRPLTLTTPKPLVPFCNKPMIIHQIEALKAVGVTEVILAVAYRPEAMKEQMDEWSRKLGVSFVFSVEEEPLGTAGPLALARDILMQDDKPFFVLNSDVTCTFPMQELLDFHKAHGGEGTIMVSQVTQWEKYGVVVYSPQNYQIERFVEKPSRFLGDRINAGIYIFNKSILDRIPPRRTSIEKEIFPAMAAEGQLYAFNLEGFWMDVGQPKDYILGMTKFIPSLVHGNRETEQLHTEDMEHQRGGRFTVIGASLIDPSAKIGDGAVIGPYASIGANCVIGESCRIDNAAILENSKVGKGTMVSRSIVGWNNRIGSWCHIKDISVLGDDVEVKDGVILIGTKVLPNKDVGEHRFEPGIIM
T1 sequence (Q9Y5P6 whole entry): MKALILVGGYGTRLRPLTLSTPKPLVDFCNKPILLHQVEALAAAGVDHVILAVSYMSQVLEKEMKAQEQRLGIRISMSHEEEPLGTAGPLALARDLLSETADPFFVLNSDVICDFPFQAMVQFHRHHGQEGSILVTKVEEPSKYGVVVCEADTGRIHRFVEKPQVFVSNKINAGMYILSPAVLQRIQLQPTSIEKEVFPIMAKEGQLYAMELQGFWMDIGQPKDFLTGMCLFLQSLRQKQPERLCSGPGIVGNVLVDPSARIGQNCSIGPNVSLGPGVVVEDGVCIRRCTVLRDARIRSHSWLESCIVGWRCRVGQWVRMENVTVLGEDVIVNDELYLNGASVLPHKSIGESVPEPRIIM

What is called IC50 is the concentration needed to halve the response being measured. For the compound `CCCCCCCCCCCCCCCCOP(=O)([O-])OCC[N+](C)(C)C` [Miltefosine, hexadecylphosphocholine, reference compound], the IC50 in data set [1] is 6.7 ± 1.7 µM; in data set [2] (Leishmania infantum, 72 h), 1 ± 0.3 µM; on LiGDP-MP, over 250 µM. The “activity on leishmanial GDP-MP (in words)” value at LiGDP-MP (purified enzyme) is reported as “did not show any activity”.
Broadly, the CC50 is the concentration that lowers cell viability or growth by half. As for `COc1cc(O)cc(CCCCCCC/C=C\CCCCCCCc2cc(O)cc(O)c2)c1` [compound 1, (8′Z)-1-hydroxy-3-methoxy-5-[16′-(3′′,5′′-dihydroxy-phenyl)-8′-hexadecen-1′-yl]benzene], the 50% cytotoxic concentration (CC50) at 48 h in data set [3] amounted to 34.4 ± 1.5 µM. Besides, the “Selectivity Index” value in data set [1] is recorded as under 0.7. The IC50 in data set [1] is over 50 µM; at hGDP-MP it was 1.3 ± 0.2 µM; in data set [2], 78.9 ± 3.1 µM; in data set [2] (Leishmania infantum, 72 h) it was over 50 µM.
Consider `COc1cc(O)cc(CCCCCCCCCCCCCCCCc2cc(O)cc(O)c2)c1` [compound 2, 1-hydroxy-3-methoxy-5-[16′-(3′′,5′′-dihydroxyphenyl)-hexadecanyl]benzene], for which the IC50 at hGDP-MP is 13.7 ± 14.2 µM; on LiGDP-MP (setting [4]), 5.9 ± 3.5 µM.
On to `COc1cc(O)cc(CCCCCCCCC/C=C\CCCCCCCc2cc(O)cc(O)c2)c1` [compound 3, (10′Z)-1-hydroxy-3-methoxy-5-[18′-(3′′,5′′-dihydroxy-phenyl)-10′-octodecen-1′-yl]benzene], for which the CC50 at 48 h in data set [3] was found to be 31.8 ± 1.6 µM. For the same compound, the “Selectivity Index” value in data set [1] is recorded as under 1.2. Besides, the IC50 in data set [1] was over 25 µM; on hGDP-MP it was 1.9 ± 0.4 µM; in data set [2], 49.5 ± 4.2 µM; in data set [2] (Leishmania infantum, 72 h), over 25 µM; on LiGDP-MP (setting [4]) it was 2.3 µM.
Turning to `CCCC/C=C\CCCCCc1cccc(O)c1C(=O)O` [compound 4, Khookerianic acid B], in data set [3], the cytotoxic concentration (CC50) at 48 h was found to be 83.1 ± 7 µM. Also, the “Selectivity Index” value in data set [1] is listed as under 0.8. Besides, the IC50 in data set [1] is over 100 µM; on hGDP-MP it was 79.9 ± 5.9 µM; in data set [2] (Leishmania infantum, 72 h), over 100 µM; at LiGDP-MP (setting [4]), 120 ± 27.5 µM.
`CCCCCCCCCCCc1cccc(O)c1C(=O)O` [compound 5, anagigantic acid]: the cytotoxic concentration (CC50) at 48 h in data set [3] was over 100 µM. The concentration for half-maximal inhibition (IC50) in data set [1] is over 100 µM; at hGDP-MP, 38.3 ± 4.1 µM; in data set [2] (Leishmania infantum, 72 h) it was over 100 µM; at LiGDP-MP (setting [4]), 50.6 ± 4.8 µM.
Consider `CCCC/C=C\CCCCCCCc1cccc(O)c1C(=O)O` [compound 6, (Z)-2-hydroxy-6-(tridec-8-en-1-yl)benzoic acid], for which the CC50 at 48 h in data set [3] is over 100 µM. Moreover, the “Selectivity Index” value in data set [1] is recorded as over 2.3. The half-inhibitory concentration (IC50) in data set [1] is 42.7 ± 1.3 µM; at hGDP-MP, 122 ± 26.1 µM; in data set [2] (Leishmania infantum, 72 h), over 100 µM; on LiGDP-MP (setting [4]), 100 ± 16.6 µM.
For the compound `CCCCCCCCCCCCCc1cccc(O)c1C(=O)O` [compound 7, 2-hydroxy-6-tridecylbenzoic acid], the CC50 at 48 h in data set [3] is over 100 µM. Further, the half-inhibitory concentration (IC50) is over 100 µM in data set [1]; 29 ± 2.5 µM at hGDP-MP; over 100 µM in data set [2] (Leishmania infantum, 72 h); 16.9 ± 5 µM on LiGDP-MP (setting [4]).
